Experimental findings from patent US5137887A, “Salts of optically active 4-hydroxy-8(3-lower alkoxy-4-phenylsulfinylphenyl)pyrazolo(1,5-A)-1,3,5- triazines and a process for production thereof” (Otsuka Pharmaceutical Factory, Inc., priority 1989, dated 1992) are described below.

Each structure is given as a SMILES string. Like-named read-outs stand apart in the source and are kept apart here.

A short description of one series: Solubility test. The format is physicochemical. As to conditions: shaken at 25° C., HPLC. The procedure:
Solubility tests with the above respective samples using water (distilled water for injection) and physiological saline as solvents were performed as follows.
Using an incubator (Taiyo Kagaku Kogyo, M-100), the tube was shaken at 25° C. After 4 hours, the content was filtered through a 0.45 μm filter and the filtrate was diluted 100-fold with mobile phase to prepare a test solution. Separately, 40.0 mg of Sample I (racemic form) was accurately weighed and made up with water to make exactly 200 ml. Then, 1 ml of this solution was accurately taken and diluted with mobile phase to make exactly 20 ml (10 μg/ml) of standard solution. Using the above test solutions and the standard solution, the solubilities of the respective samples were determined.

Series [1] has as its system xanthine dehydrogenase activity in the liver. The experiment in a line: Xanthine dehydrogenase inhibitory activity test (enzyme activity in liver after oral administration). The format is in vivo. The settings on record: male ICR rats, 5 mg/kg orally in 0.5% CMC; for Enzymatic activity in the liver isolated after 4 hr.: liver excised 4 hours after administration; for Enzymatic activity in the liver isolated after 8 hr.: liver excised 8 hours after administration. The procedure: Xanthine dehydrogenase inhibitory activity test
The test was performed using male ICR […] (aged 6 weeks, b.w. 28.0-40.6 g). The compounds of the invention as obtained in Example 2 were respectively suspended in 0.5% carboxymethylcellulose (CMC) solution and the suspensions were administered orally at the rate of 10 ml/kg (Test Group 1 and Test Group 2). The compound of the invention and its dosage used in each test group are shown below.
After 4 and 8 hours from the administration, animals in each group were sacrified, the liver was excised, and the xanthine dehydrogenase activity in the liver was assayed by the following general procedure.
Thus, a homogenate of the liver was diluted 5-fold with 100 mM Tris-HCl buffer (hereinafter referred to merely as buffer). Then, 50 μl of this dilution, 25 μl of a buffer dilution of NAD^+ (20 mM) and 25 μl of a buffer solution of potassium oxonate were added to 300 μl of the buffer (the concentrations of NAD^+ and potassium oxonate in the total solution were 1 mM each) and the mixture was incubated at 25° C. for 5 minutes. This incubate was centrifuged and the uric acid in the supernatant was estimated by high performance liquid chromatography (HPLC). The value was taken as the pre-treatment baseline.
On the other hand, to a preincubate obtained in the same manner as above was added 100 μl of a buffer solution of xanthine (1 mM) and the mixture was incubated at 25° C. for 5 minutes. The reaction was stopped with 50 μl of 6M perchloric acid and the reaction mixture was centrifuged in the same manner as above. The supernatant was neutralized with an aqueous solution of sodium dihydrogen phosphate and uric acid produced was assayed by HPLC. The value was taken as the post-treatment value.
From the difference between the above post-treatment value and pre-treatment baseline value of uric acid, xanthine dehydrogenase activity was determined.

Setting [2] is: water, water (distilled water for injection), read-out: Solubility in water.
Setting [3] is: physiological saline, read-out: Solubility in physiological saline.

For `COc1cc(-c2cnn3c([O-])ncnc23)ccc1[S+]([O-])c1ccccc1.O.[Na+]` (racemic) [Sample I, Sodium (±)-8-(3-methoxy-4-phenylsulfinylphenyl)pyrazolo[1,5-a]-1,3,5-triazine-4-olate monohydrate, reference compound], the “Solubility in physiological saline” value is listed as “about 0.08 w/w %” in “Solubility test” (physiological saline, 4 hours, listed as sodium salt of the racemic compound, monohydrate, 240 min) and 0.0083 w/w % in “Solubility test” (physiological saline, 4 hours, monohydrate, 240 min). Further, in the series “Solubility test” (water (distilled water for injection), 4 hours, listed as sodium salt of the above racemic compound, monohydrate, 240 min), the Solubility in water entry is recorded as “about 0.2 w/w %”. Moreover, the solubility at 4 h in “Solubility test” (setting [2]) was determined as 2.21 mg/mL.
On to `COc1cc(-c2cnn3c([O-])ncnc23)ccc1[S+]([O-])c1ccccc1.O.O.[Na+]` (single isomer, unassigned) [Sample II, Sodium (-)-8-(3-methoxy-4-phenylsulfinylphenyl)pyrazolo[1,5-a]-1,3,5-triazine-4-olate dihydrate], for which the solubility at 4 h in “Solubility test” (setting [3]) and in the series “Solubility test” (setting [2]) was at least 500 mg/mL throughout. Moreover, the “Enzymatic activity in the liver isolated after 4 hr.” value in series [1] (control 152 ± 21, listed as Test group 1, dihydrate) is 7 ± 4 mU/g. Further, the “Enzymatic activity in the liver isolated after 8 hr.” value in series [1] (control 137 ± 31, listed as Test group 1, dihydrate) is given as 17 ± 7 mU/g.
Take `COc1cc(-c2cnn3c([O-])ncnc23)ccc1[S+]([O-])c1ccccc1.O.O.[Na+]` (single isomer, unassigned) [Sample III, Sodium (+)-8-(3-methoxy-4-phenylsulfinylphenyl)pyrazolo[1,5-a]-1,3,5-triazine-4-olate dihydrate]: the “Enzymatic activity in the liver isolated after 4 hr.” value in series [1] (control 152 ± 21, listed as Test group 2, dihydrate) is given as 33 ± 16 mU/g. For the same molecule, in series [1] (control 137 ± 31, listed as Test group 2, dihydrate), the “Enzymatic activity in the liver isolated after 8 hr.” value came out at 22 ± 10 mU/g.
For `COc1cc(-c2cnn3c(O)ncnc23)ccc1[S+]([O-])c1ccccc1` (single isomer, unassigned) [Sample IV, Calcium bis[(-)-8-(3-methoxy-4-phenylsulfinylphenyl)pyrazolo[1,5-a]-1,3,5-triazine-4-olate] dihydrate], the solubility at 4 h in the series “Solubility test” (setting [3]) is at least 500 mg/mL; in “Solubility test” (water (distilled water for injection), read-out: Solubility in water) it was at least 500 mg/mL.
